Experimental data from US5681739A.

Tests used:
[1] = tested on: soil cultures; type: cell-based; conditions: soil cultures of Example 6 after 32 hours of growth
[2] = pH, Eh and total chromium of soil cultures after growth; type: physicochemical; conditions: cell-free supernatants, after 32 hours of growth
Procedure: Immediately after collection in sterile containers, the soil samples were stored at 4° C. for 30 days before use. Soil dilutions (10^-1 g/mL) were made in sterile isotonic phosphate buffer. One mL of each soil dilution was inoculated into 165 mL sealed serum vials containing 50 mL of TSB with N2 in the headspace. The serum vials and their contents were sterilized prior to inoculation.
Cr(VI) was added to the culture broth as K2 CrO4 to a final concentration of about 20 mg/L of Cr(VI). Cultures were incubated, at 30° C. on a gyratory shaker at 100 rpm, in an inverted position to limit gas leakage. Samples were analyzed periodically for Cr(VI) concentration and cell density.
After 32 hours of growth, pH, Eh, and total chromium levels of the cultures of Example 6 were determined. The initial pH of TSB was 7.04. Eh was measured with a platinum electrode (Microelectrodes, Inc., Londonderry, N.H.) using an ACCUMET 50 digital pH meter (Fisher Scientific, Pittsburgh, Pa.). Total chromium was analyzed with inductively coupled plasma emission spectroscopy (Model 3410, ARL) of clarified cultures.

In the case of `[Cr+3]` [Cr(III)], the “bacterial growth inhibition related to Cr(III)” value [1] is reported as “no evidence of Cr(III) precipitating out of solution or bacterial growth inhibition related to Cr(III)” and the “Cr(III) precipitation out of solution” value [2] is reported as “no evidence of Cr(III) precipitating out of solution”.
